The text below walks through data of PubChem BioAssay (NCI).

Each structure is given as a SMILES string.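 48-hour exposure; five concentrations; linearly interpolated endpoints. At the GI50, growth is halved. The concentration for full growth arrest is given as TGI.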

In the first assay the test system is UACC-62 melanoma. The assay is described as follows: growth of human tumour cells (NCI), 48 h.
Take `CCCCCC(=O)NC(=S)Nc1nn[nH]n1`: the TGI is > 100 µM.

As for `CCc1ccc2oc(-c3cc(O)c(-c4nc5cc(CC)ccc5o4)cc3O)nc2c1`, the TGI was > 100 µM.

As for `Cc1cn(C2CC(n3cc(Cn4cc(Br)c(=O)[nH]c4=O)nn3)C(CO)O2)c(=O)[nH]c1=O` (stereo unspecified), the TGI was > 100 µM.

A further assay deals with SK-MEL-2 melanoma. The assay can be described thus: growth of human tumour cells (NCI), 48 h.
In the case of `CCC1(C(=O)OC(C)(C)C)OC12C(C)CCCC2C` (stereo unspecified), the TGI is > 100 µM.

On to `Cc1ccc(-c2cc(N)n(-c3nc4c(c(=O)n(C)c(=O)n4C)n3C)n2)cc1`, for which the TGI was > 100 µM.

For `O=C(Cc1ccccc1)NN1C(=O)/C(=C\c2cccc(O)c2)SC1=Nc1ccccc1`, the TGI was > 100 µM.

Take `CN(C)c1ccc(C2SCC(=O)N2NS(=O)(=O)c2cccc(C(=O)O)c2)cc1` (stereo unspecified): the TGI was > 100 µM.

For the compound `CC1CCOc2ccc(cc2)C=Nc2ccc(cc2)CCc2ccc(cc2)N=Cc2ccc(cc2)OCC1` (stereo unspecified), the TGI was > 100 µM.

In turn, `O=C1c2ccccc2-c2nc(-c3cccc([N+](=O)[O-])c3)nnc21` registered a TGI of 49.2 µM.

`CC(=O)N1N=C(c2ccc3ccccc3c2O)CC1C(=O)c1ccco1` (stereo unspecified) showed a TGI of 52.8 µM.

Regarding `N#Cc1nc(-c2cccs2)oc1N`, the TGI was > 100 µM.

Take `NC(=O)NNC(=O)c1nc[nH]c1[N+](=O)[O-]`: the TGI is > 100 µM.

With `O=c1c2c([N+](=O)[O-])cccc2nc2[nH]c3ccccc3n12`, the TGI came to 42.5 µM.

Turning to `N#C/C(=C\n1ccc(=O)[nH]c1=S)C(N)=O`, the TGI was > 100 µM.

As for `O=C(OCC1OC2OC(c3ccccc3)(n3ccc4c([N+](=O)[O-])ccnc43)OC2C1OC(=O)c1ccccc1)c1ccccc1` (stereo unspecified), the TGI was > 100 µM.

With `Cc1ccc(/C(O)=C/C(=O)C(=O)/C=C(\O)c2ccc(C)cc2C)c(C)c1`, the TGI was found to be 3.65 µM.

On to `O=C(NCCCCCCNCc1cccc2ccccc12)Nc1cccc2ccccc12`, for which the TGI was > 100 µM.

On to `Cc1ccc([C@H]2CC(=O)C[C@H](c3ccc(C)cc3)C23C(=O)c2ccccc2C3=O)cc1`, for which the TGI was > 100 µM.

On to `O=c1c2ncn(COCCCl)c2n(-c2ccccc2)c(=S)n1-c1ccccc1`, for which the TGI is > 100 µM.

For the compound `O=C(O)c1ccc(S(=O)(=O)c2ccccc2[N+](=O)[O-])cc1`, the TGI is > 10 µM.

As to `COc1ccc(/C=N/N=C(\N)NO)c(O)c1`, the TGI is > 10 µM.

Turning to `OCC1OC(n2cnc3c(Cl)nc(Nc4ccccc4)nc32)CC1O` (stereo unspecified), the TGI is > 100 µM.

In the case of `C[C@]12CCc3nc(Nc4ccccc4)sc3C1=CC[C@@H]1[C@@H]2CC[C@]2(C)/C(=N/NC(N)=S)CC[C@@H]12`, the GI50 is 5.89 µM and the TGI was > 100 µM.

With `CCn1nc2c3c(ncn3C(C)(C)O2)c1=O`, the TGI is > 100 µM.

With `CCCCCC(=O)NC(=S)Nc1nn[nH]n1`, the TGI is > 100 µM.

As for `CCc1ccc2oc(-c3cc(O)c(-c4nc5cc(CC)ccc5o4)cc3O)nc2c1`, the TGI was > 100 µM.

For the compound `Cc1cn(C2CC(n3cc(Cn4cc(Br)c(=O)[nH]c4=O)nn3)C(CO)O2)c(=O)[nH]c1=O` (stereo unspecified), the TGI was > 100 µM.

A further assay has as its system SF-295 CNS. The assay is described as follows: growth of human tumour cells (NCI), 48 h.
Consider `CCC1(C(=O)OC(C)(C)C)OC12C(C)CCCC2C` (stereo unspecified), for which the TGI is > 100 µM.

On to `Cc1ccc(-c2cc(N)n(-c3nc4c(c(=O)n(C)c(=O)n4C)n3C)n2)cc1`, for which the TGI is > 100 µM.

`O=C(Cc1ccccc1)NN1C(=O)/C(=C\c2cccc(O)c2)SC1=Nc1ccccc1`: the TGI was > 100 µM.

Regarding `CN(C)c1ccc(C2SCC(=O)N2NS(=O)(=O)c2cccc(C(=O)O)c2)cc1` (stereo unspecified), the TGI was > 100 µM.

`CC1CCOc2ccc(cc2)C=Nc2ccc(cc2)CCc2ccc(cc2)N=Cc2ccc(cc2)OCC1` (stereo unspecified): the TGI was > 100 µM.

`O=C1c2ccccc2-c2nc(-c3cccc([N+](=O)[O-])c3)nnc21`: the TGI was > 100 µM.

As for `CC(=O)N1N=C(c2ccc3ccccc3c2O)CC1C(=O)c1ccco1` (stereo unspecified), the TGI was > 100 µM.

Consider `N#Cc1nc(-c2cccs2)oc1N`, for which the TGI is > 100 µM.

Regarding `O=c1c2c([N+](=O)[O-])cccc2nc2[nH]c3ccccc3n12`, the TGI is > 75 µM.

With `N#C/C(=C\n1ccc(=O)[nH]c1=S)C(N)=O`, the TGI is > 100 µM.

Turning to `O=C(OCC1OC2OC(c3ccccc3)(n3ccc4c([N+](=O)[O-])ccnc43)OC2C1OC(=O)c1ccccc1)c1ccccc1` (stereo unspecified), the TGI is > 100 µM.

`Cc1ccc(/C(O)=C/C(=O)C(=O)/C=C(\O)c2ccc(C)cc2C)c(C)c1`: the TGI came to 3.38 µM.

In the case of `O=C(NCCCCCCNCc1cccc2ccccc12)Nc1cccc2ccccc12`, the TGI is > 100 µM.

`Cc1ccc([C@H]2CC(=O)C[C@H](c3ccc(C)cc3)C23C(=O)c2ccccc2C3=O)cc1` yielded a TGI of 51.9 µM.

For the compound `O=c1c2ncn(COCCCl)c2n(-c2ccccc2)c(=S)n1-c1ccccc1`, the TGI was > 100 µM.

As to `O=C(O)c1ccc(S(=O)(=O)c2ccccc2[N+](=O)[O-])cc1`, the TGI was > 10 µM.

For the compound `COc1ccc(/C=N/N=C(\N)NO)c(O)c1`, the TGI is > 10 µM.

Take `OCC1OC(n2cnc3c(Cl)nc(Nc4ccccc4)nc32)CC1O` (stereo unspecified): the TGI is > 100 µM.

Turning to `CC1(CF)SCc2nc3ccccc3n21` (stereo unspecified), the TGI was > 100 µM.

Take `C[C@]12CCc3nc(Nc4ccccc4)sc3C1=CC[C@@H]1[C@@H]2CC[C@]2(C)/C(=N/NC(N)=S)CC[C@@H]12`: the GI50 is 3.75 µM and the TGI came to 72.3 µM.

In the case of `O=C1NC(N/N=C/C(O)C(O)C(O)CO)=N/C1=C\c1ccco1` (stereo unspecified), the TGI was > 100 µM.

Consider `Cc1ccn2c(=O)cc(-c3ccccc3)nc2c1`, for which the TGI is > 100 µM.

As to `CCn1nc2c3c(ncn3C(C)(C)O2)c1=O`, the TGI is > 100 µM.

On to `CCCCCC(=O)NC(=S)Nc1nn[nH]n1`, for which the TGI was > 100 µM.

As for `Cc1cn(C2CC(n3cc(Cn4cc(Br)c(=O)[nH]c4=O)nn3)C(CO)O2)c(=O)[nH]c1=O` (stereo unspecified), the TGI is > 100 µM.

The subject of a further assay is HS 578T breast. The assay is described as follows: growth of human tumour cells (NCI), 48 h.
As for `CCC1(C(=O)OC(C)(C)C)OC12C(C)CCCC2C` (stereo unspecified), the TGI is > 100 µM.

Take `Cc1ccc(-c2cc(N)n(-c3nc4c(c(=O)n(C)c(=O)n4C)n3C)n2)cc1`: the TGI was > 100 µM.

As for `O=C(Cc1ccccc1)NN1C(=O)/C(=C\c2cccc(O)c2)SC1=Nc1ccccc1`, the TGI was > 100 µM.

On to `CN(C)c1ccc(C2SCC(=O)N2NS(=O)(=O)c2cccc(C(=O)O)c2)cc1` (stereo unspecified), for which the TGI was > 100 µM.

Turning to `CC1CCOc2ccc(cc2)C=Nc2ccc(cc2)CCc2ccc(cc2)N=Cc2ccc(cc2)OCC1` (stereo unspecified), the TGI was > 100 µM.

Consider `O=C1c2ccccc2-c2nc(-c3cccc([N+](=O)[O-])c3)nnc21`, for which the TGI is > 100 µM.

For `CC(=O)N1N=C(c2ccc3ccccc3c2O)CC1C(=O)c1ccco1` (stereo unspecified), the TGI was > 100 µM.

For `N#Cc1nc(-c2cccs2)oc1N`, the TGI was > 100 µM.

Take `NC(=O)NNC(=O)c1nc[nH]c1[N+](=O)[O-]`: the TGI is > 100 µM.

For the compound `O=c1c2c([N+](=O)[O-])cccc2nc2[nH]c3ccccc3n12`, the TGI is > 75 µM.

As for `N#C/C(=C\n1ccc(=O)[nH]c1=S)C(N)=O`, the TGI was > 100 µM.

Regarding `O=C(OCC1OC2OC(c3ccccc3)(n3ccc4c([N+](=O)[O-])ccnc43)OC2C1OC(=O)c1ccccc1)c1ccccc1` (stereo unspecified), the TGI was > 100 µM.
